Earlier results on one compound are cited in US6780436B1, “Solid oral pharmaceutical formulation of modified release that contains an acid labile benzimidazole compound” (Laboratorios Del Dr. Esteve, SA, priority 1999, dated 2004).

For the series the following is noted: hard gelatin capsules that contain omeprazole pellets with enteric coating; stated 'in general' in the background.

Take `COc1ccc2[nH]c([S+]([O-])Cc3ncc(C)c(OC)c3C)nc2c1` (stereo not shown) [omeprazole, 5-methoxy-2[[(4-methoxy-3,5-dimethyl-2-pyridinyl)methyl]sulphinyl]-1H-benzimidazole]: the “time of peak plasma concentration after administration” value is 2 h.
